Assay results from US9844540B2, “Combination therapies for treating cancer” (RedHill Biopharma Ltd., priority 2015, dated 2017).
“And” between values parts separate entries of the source, which are not always exact repeats. Equal entries are not always repeated. Where two headings read alike, the source gives them in different places.

Legend:
T24 (bladder) = assay: Tumor cell line panel, sulforhodamine B, T24; assay type: cell-based; details: Homo sapiens, 48 hours, mean ± sd
Method: (§1) To examine the range of anticancer, the chemotherapeutic potency of ABC294640 towards a panel of varied human tumor cell lines representing several major tumor types were determined. […] [table]

Hep-G2 (liver) = assay: Tumor cell line panel, sulforhodamine B, Hep-G2; assay type: cell-based; details: Homo sapiens, HepG2, 48 hours, mean ± sd
Method: as §1

[1] = tested on: MCF-10A non-transformed human breast epithelial cells; assay: Cytotoxicity, SRB assay, MCF-10A; assay type: cell-based; details: 48 h, SRB binding assay, read-out: IC50 (concentration that inhibited proliferation by 50%)
Method: (§2) To assess the biological efficacy of ABC294640 in intact cells, ABC294640 was evaluated for cytotoxicity using human cancer cell lines. These experiments followed methods that have been extensively used. Cell lines tested included MCF-7 human breast adenocarcinoma cells and MCF-10A non-transformed human breast epithelial cells. The indicated cell lines were treated with varying doses of ABC294640 for 48 h. Cell survival was then determined using the SRB binding assay (Skehan et al., 1990, J Natl Cancer Inst 82: 1107), and the concentration of ABC294640 that inhibited proliferation by 50% (the IC50) was calculated. […] ABC294640 is antiproliferative at sub-to-low-micromolar.

[2] = tested on: mouse JC mammary adenocarcinoma cell line; assay: Antitumor activity in syngeneic JC mammary adenocarcinoma model; assay type: in vivo, Balb/c mice
Method: The antitumor activity of ABC294640 was evaluated using a syngeneic tumor model that uses the mouse JC mammary adenocarcinoma cell line growing subcutaneously in immunocompetent Balb/c mice (Lee et al., 2003, Oncol Res 14: 49). These cells express elevated levels of SK activity relative to non-transformed cells, as well as the multidrug resistance phenotype due to P-glycoprotein activity.
Balb/c mice, 6-8 weeks old, were injected subcutaneously with 10^6 JC cells suspended in phosphate-buffered saline. ABC294640 was dissolved in PEG400 and administered to mice every-other day at a dose of 100 mg/kg. Body weights and tumor volumes were monitored daily. […] ABC294640 inhibited tumor growth relative to controls by 69%.

[3] = tested on: MCF-7 human breast adenocarcinoma cells; assay: Cytotoxicity, SRB assay, MCF-7; assay type: cell-based; details: MCF7, 48 h, read-out: IC50 (concentration that inhibited proliferation by 50%)
Method: as §2

physchem = assay type: physicochemical; details: aqueous with cosolvent or surfactant or cyclodextrin
[4] = mouse, in vivo
Method: […]. […] ABC294640 could also be administered orally to mice at doses up to at least 100 mg/kg without noticeable toxicity.

[5] = tested on: LPS-induced cytokine production; assay: LPS-induced cytokine production in C57BL/6 mice; assay type: in vivo; details: serum 2 hours after LPS; dosed once 1 hour before LPS; dexamethasone 5 mg/kg i.p., RHB-104 108 mg/kg p.o.
Method: This study was performed to evaluate the effects of RHB-104 (as detailed above) dosed orally at 108 mg/kg on lipopolysaccharide (LPS)-induced cytokine production in mice. The LPS-induced cytokine production model in mice is commonly used to test the ability of compounds to suppress production of pro-inflammatory cytokines TNF and IL-6 in vivo.
In this model LPS is injected into mice intraperitoneally (i.p.) or intravenously. Two hours after the LPS injection, concentrations of IL-6 and TNF reach peak levels in serum of the injected mice.
30 female C57BL/6 mice, 11 weeks old, were dosed once with RHB-104, then injected with LPS 1 hour later. 2 hours after LPS injection, mice were bled and serum was isolated. The concentration of cytokines in serum was measured. Dexamethasone administered at 5 mg/kg i.p. was used as positive control for suppression of the immune response. Dexamethasone suppresses production of pro-inflammatory cytokines TNF and IL-6 increases production of anti-inflammatory cytokine IL-10.
Serum concentrations of IL-2, IL-4, IL-6, IL-10, IL-17, IFN-γ and TNF were measured using cytokine bead analysis (CBA) Th1/Th2/Th17 kit (Becton Dickinson). Concentrations of cytokines in serum between groups were compared using 2-tailed Student's t-test.

[6] = tested on: Hs 766T pancreatic cancer cell line; assay: In vitro cytotoxicity MTT assay, Hs 766T; assay type: cell-based, human; details: 3 days
Method: (§3) The following experiment was performed to assess the potential of combination agents of the present disclosure for their capability of inhibiting the growth or proliferation of pancreatic cancer cells comprising contacting pancreatic cancer cells with effective amounts of the agents, alone and in combination, thereby inhibiting the growth or proliferation of the pancreatic cancer cells.
(§4) The present study investigated whether clarithromycin+rifabutin+clofazimine (“Combo”) would be synergistic with [3-(4-chlorophenyl)-adamantane-1-carboxylic acid (pyridin-4-ylmethyl)amide] (“ABC2640”) against MIA PaCa-2, PANC-1, and Hs 766T pancreatic cancer cell lines. Hs 766T is a cell line derived from the lymph node metastasis of a person with pancreas carcinoma. MIA PaCa-2 is a cell line derived from the pancreas adenocarcinoma of a person who presented with abdominal pain for 6 months and a palpable upper abdominal mass. PANC-1 was cultured from a person with an adenocarcinoma in the head of the pancreas which invaded the duodenal wall.
(§5) The MTT assay is commonly used to determine cytotoxicity of potential medicinal agents, since these types of materials are expected to stimulate or inhibit cell viability and growth. Briefly, 3,000 cells were plated/well—100 μl/well. After overnight, prior to the assay, 50 μl supernatant was removed from each well. Each drug was added at 4× of the final concentration (in 50 μl). Total volume of each well was 200 μl. 4 wells had been used as a control and contained no cells at all. The plate was developed after being incubated for 3 days at 37° C. 20 μl of Promega Substrate Cell Titer 96 Aqueous One Solution Reagent was added to each well, incubated at 37° C. and read OD at 490 nm. The MTT test is based on the enzymatic reduction of the tetrazolium salt MTT [3-(4,5-dimethylthiazol-2-yl)-2,5-diphenyl-tetrazoliumbromide^+++] in living, metabolically active cells but not in dead cells. The reaction is carried out in situ in multiwell plates, and the reaction product, a purple-colored formazan soluble in dimethylsulfoxide, is measured colorimetrically, using a multiwell plate reader.

[7] = tested on: MIA PaCa-2 pancreatic cancer cell line; assay: In vitro cytotoxicity MTT assay, MIA PaCa-2; assay type: cell-based, human; details: 3 days
Method: as §3, §4, §5

[8] = tested on: PANC-1 pancreatic cancer cell line; assay: In vitro cytotoxicity MTT assay, PANC-1; assay type: cell-based, human; details: 3 days
Method: as §3, §4, §5

BN472 breast cancer = assay: In vivo assay of WX-671 in the BN472 rat breast cancer model; set-up: species or system brown Norwegian rats; details: WX-UK1 1 mg/kg i.p. daily, 30 days
Method: The treatments started 72 h after tumor implantation and were repeated daily until the animals were sacrificed after 30 days. The control group (A) received 0.75 ml of the substance-free substance carrier solution consisting of 5% ethanol, 5% D-mannitol and 5% Tween 20 in water orally by gavage.
Growth of the inoculated tumors was determined in the dimensions length and width twice weekly, using a slide gauge. After the animals had been sacrificed, the therapy end points, tumor weight, weights of the axillary and intraperitoneal lymph nodes and also the number of macroscopic lung metastases were determined.

[9] = tested on: rat pancreatic tumor model, CA20948; assay: In vivo test of WX-671 in the pancreatic adenocarcinoma model CA20948; details: 0.3 mg/kg by intraperitoneal injection; vehicle 30.7%
Method: Groups of eighteen rats were inoculated with tumor by intraperitoneal injection of a tumor cell suspension, prepared from a solid tumor harvested from a donor rat.
In this model the intraperitoneally grafted cells migrate to the pancreas to form a pancreatic tumor intimately associated with the pancreas. Within 3 weeks the tumor disseminates typically to the liver to form metastatic lesions which can be counted. Treatments at dose levels of 0.03, 0.3 and 3.0 mg/kg once daily were orally applied daily from day 3 onwards.
The percentage of large liver foci was determined by dividing the number of large lesions by the number of total lesion detected on the livers.

[10] = tested on: human tumor cell strain K562-WT
Method: (§6) The human tumor cell strain K562-WT and the tumor cell strain F46-WT of the mouse (WT=wild type=sensitive to cytostatic treatment=no amplification of the MDR-gene) is treated over several weeks with staged increase in concentrations of adriamycin. […] The formation of resistance is based on the amplification of the MDR gene.

[11] = tested on: tumor cell strain F46-WT of the mouse; details: for formation of resistance to adriamycin: 6 to 8 weeks
Method: as §6
The tumor cell strain F4-6-WT of the mouse (WT=wild type=sensitive to cytostatic treatment=no amplification of the MDR gene) is treated over several weeks with staged increases in concentration of adriamycin. […] The formation of resistance is based on the amplification of the MDR gene. The levels of β-actin MRNA are likewise analyzed as comparison. β-actin is used as an internal control for the RNA quantity.

AH13r sarcoma cells = assay: BVDU and chemotherapy-induced apoptosis in AH13r sarcoma cells; assay type: cell-based
From the text: AH13r cells were subjected to increasing doses of the cytostatic mitomycin C (MMC). […] This inhibitory effect was maintained even after discontinuation of the cytostatic in the next cycle, in the so-called recovery phase. The cells without MMC and BVDU continued to grow without inhibition. […] The indication that the reduction in cell number is based on apoptosis, was detected by means of Hoechst 33258/propidium iodide (Hopi) double colouration.

SMILES: O=C(NCc1ccncc1)C12CC3CC(C1)CC(c1ccc(Cl)cc1)(C3)C2 [Compound 62, 3-(4-Chloro-phenyl)-adamantane-1-carboxylic acid(pyridin-4-ylmethyl)-amide]
- IC50 (T24 (bladder)): 39.4 ± 7.4 µM
- IC50 (Hep-G2 (liver)): 6 ± 2.6 µM

SMILES: O=C(NCc1ccncc1)C12CC3CC(C1)CC(c1ccc(Cl)cc1)(C3)C2 [ABC294640, 3-(4-chlorophenyl)-adamantane-1-carboxylic acid (pyridin-4-ylmethyl)amide]
- IC50 [1]: 21 µM
- inhibition of tumor growth relative to controls ([2]; 100 mg/kg in PEG400 every-other day): 69%
- decrease of tumor growth versus control animals ([2]; 100 mg/kg in PEG400 every-other day, day 16): > 70%
- oral dose with antitumor activity (dose-response studies) ([2]; orally administered): ≥ 35 mg/kg
- IC50 [3]: 17 µM
- solubility (physchem): ≥ 15000 µg/mL and 30000 µM to 40000 µM
- dose with no immediate or delayed toxicity, acute toxicity ([4]; female, Swiss-Webster, ip): at least 50 mg/kg
- oral dose without noticeable toxicity ([4]; po): at least 100 mg/kg

SMILES: C[C@@H]1C[C@H]2[C@@H]3CCC4=CC(=O)C=C[C@]4(C)[C@@]3(F)[C@@H](O)C[C@]2(C)[C@@]1(O)C(=O)CO [Dexamethasone, dexamethasone]
- IL-6 (pg/mL) ± SD [5]: 1259 ± 295 pg/mL
- IL-10 (pg/mL) ± SD [5]: 106 ± 66 pg/mL
- TNF (pg/mL) ± SD [5]: 35 ± 10 pg/mL

SMILES: CCOC(=O)N1CCN(C(=O)[C@H](Cc2cccc(C(=N)N)c2)NS(=O)(=O)c2c(C(C)C)cc(C(C)C)cc2C(C)C)CC1.Cl [UK-1]
- Toxicity (%) ([6]; 5 μM): 35%
- Toxicity (%) ([6]; 10 μM): 28%
- Toxicity (%) ([6]; 20 μM): 19%
- Toxicity (%) ([7]; 5 μM): 33%
- Toxicity (%) ([7]; 10 μM): 0%
- Toxicity (%) ([7]; 20 μM): 0%
- Toxicity (%) ([8]; 5 μM): 0%
- Toxicity (%) ([8]; 10 μM): 0%
- Toxicity (%) ([8]; 20 μM): 14%

SMILES: CC[C@H]1OC(=O)[C@H](C)[C@@H](O[C@H]2C[C@@](C)(OC)[C@@H](O)[C@H](C)O2)[C@H](C)[C@@H](O[C@@H]2O[C@H](C)C[C@H](N(C)C)[C@H]2O)[C@](C)(OC)C[C@@H](C)C(=O)[C@H](C)[C@@H](O)[C@]1(C)O [clarithromycin, Clarithromycin]
- Toxicity (%) ([6]; 100 μM): 29%
- Toxicity (%) ([7]; 100 μM): 0%
- Toxicity (%) ([8]; 100 μM): 7%

SMILES: CC(C)/N=c1\cc2n(-c3ccc(Cl)cc3)c3ccccc3nc-2cc1Nc1ccc(Cl)cc1 [clofazimine, Clofazimine]
- Toxicity (%) ([6]; 5 μM): 62%
- Toxicity (%) ([7]; 5 μM): 4%
- Toxicity (%) ([8]; 5 μM): 41%

SMILES: CCOC(=O)N1CCN(C(=O)[C@H](Cc2cccc(C(=N)N)c2)NS(=O)(=O)c2c(C(C)C)cc(C(C)C)cc2C(C)C)CC1 [WX-UK1, Na-(2,4,6-triisopropylphenylsulfonyl)-3-amidino-(L)-phenylalanine-4-ethoxycarbonylpiperazide]
- reduction of average tumor weights at the end of the treatment compared to the control (BN472 breast cancer): approx. 5%
- percentage large mets (>2 mm liver lesions of total liver lesions) [9]: 13.4%

SMILES: O=C(NCc1ccncc1)C12CC3CC(C1)CC(c1ccc(Cl)cc1)(C3)C2 [ABC640, 3-(4-chlorophenyl)-adamantane-1-carboxylic acid (pyridin-4-ylmethyl)amide]
- Toxicity (%) ([6]; 25 μM): 17%
- Toxicity (%) ([6]; 50 μM): 72%
- Toxicity (%) ([7]; 25 μM): 11%
- Toxicity (%) ([7]; 50 μM): 92%
- Toxicity (%) ([8]; 25 μM): 0%
- Toxicity (%) ([8]; 50 μM): 68%

SMILES: COc1cccc2c1C(=O)c1c(O)c3c(c(O)c1C2=O)C[C@@](O)(C(=O)CO)C[C@@H]3O[C@H]1C[C@H](N)[C@H](O)[C@H](C)O1 [adriamycin]
- toxic effect on non-resistant cells ([10]; K562-WT, 20 ng/ml, treatment time 4 days): severely toxic effect

SMILES: O=c1[nH]c(=O)n(C2CC(O)C(CO)O2)cc1/C=C/Br (centres unmarked) [BVDU, (E)-5-(2-bromovinyl)-2-deoxyuridine]
- formation of resistance to adriamycin ([11]; F4-6-WT, 1 μg/ml BVDU with adriamycin): prevented the formation of resistance to adriamycin
- formation of resistance to adriamycin ([11]; F46-WT, 0.5 or 1 μg/ml BVDU together with staged increasing adriamycin): prevents the formation of resistance to adriamycin
- concentration from which BVDU acts in a toxic manner ([11]; mouse): about 8 μg/ml
- toxic effect, given alone (AH13r sarcoma cells): no toxic effect
- cell growth in the recovery phase after discontinuation of the cytostatic (AH13r sarcoma cells; continued BVDU without MMC): greatly inhibited in their growth
- formation of resistance to adriamycin ([10]; K562-WT, 0.5 or 1 μg/ml BVDU together with staged increasing adriamycin, 6 to 8 weeks): prevents the formation of resistance to adriamycin
- concentration from which BVDU acts in a toxic manner ([10]; human): about 10 μg/ml

SMILES: CO[C@H]1/C=C/O[C@@]2(C)Oc3c(C)c(O)c4c(c3C2=O)C2=NC3(CCN(CC(C)C)CC3)NC2=C(NC(=O)/C(C)=C\C=C\[C@H](C)[C@H](O)[C@@H](C)[C@@H](O)[C@@H](C)[C@H](OC(C)=O)[C@@H]1C)C4=O [rifabutin, Rifabutin]
- Toxicity (%) ([6]; 70 μM): 20%
- Toxicity (%) ([7]; 35 μM): 8%
- Toxicity (%) ([8]; 70 μM): 0%
